Experimental data published in ChEMBL document CHEMBL5728788, “Inhibitors of dihydroceramide desaturase for treating disease” (2021).

target: T1, Sphingolipid delta(4)-desaturase DES1 (Homo sapiens, UniProt O15121); experiment: Des1 Activity Assays: Jurkat clone E6-1 cells were grown and then seeded at 10^6 cells/mL in a 96-well plate (400 μL in each well. The cells were administered 100 μL of cell culture media containing 50-μM NBD-C6-dihydroceramide (Des1 substrate), affording a final concentration of substrate of 10 μM. The cells were incubated with substrate at 4° C. for 30 minutes. Following the incubation at 4° C., the cell suspension was centrifuged at 1200 rpm for 3 minutes, and the cell pellet is resuspended in 400 μL of fresh media containing various concentrations of either fenretinide (known Des1 inhibitor control compound) or test article. The final concentrations of control compound and test compounds were tested in a range from 0-10 μM. The cells and compounds were incubated at 37° C. for 3 hours. Following the 3-hour incubation, the plate was centrifuged at 2500 g for 3 minutes at 4° C., followed by collection and transfer of 200 μL of the supernatant to a new 96-well plate with 300 μL of methanol an containing appropriate internal standards for liquid chromatography/tandem mass spectroscopy (LC/MS/MS) analysis (internal standard: 500 nM labetalol and 100 nM alprazolam). The samples were vortexed for 2 minutes followed by centrifugation at 3,220 g for 20 minutes. Following centrifugation, 200 μL of the supernatant was transferred to a new 96-well plate for LC-MS/MS analysis to determine the amount of NBD-C6-ceramide (Des1 product) produced. The assay was typically performed in duplicate. A reduction of at least 30% compared to vehicle control (0 μM test article) is indicative of an active compound, and a reduction of 75% compared to vehicle control is preferred.; format: cell-based
T1 sequence (O15121 whole entry): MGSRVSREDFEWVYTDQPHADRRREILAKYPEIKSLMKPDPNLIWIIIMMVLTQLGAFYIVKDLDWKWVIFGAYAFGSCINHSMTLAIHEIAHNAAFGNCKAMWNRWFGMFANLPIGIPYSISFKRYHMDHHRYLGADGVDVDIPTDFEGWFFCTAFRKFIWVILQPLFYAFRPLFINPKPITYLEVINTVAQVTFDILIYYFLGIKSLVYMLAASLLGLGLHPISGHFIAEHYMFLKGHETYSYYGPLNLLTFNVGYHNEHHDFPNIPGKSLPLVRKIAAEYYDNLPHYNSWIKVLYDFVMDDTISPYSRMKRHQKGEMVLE

| Structure (SMILES) | IC50 |
| --- | --- |
| O=C(Nc1ccc(O)cn1)c1ccc(-c2cccnc2)cc1 | 130 nM |
| O=C(Cc1ccccc1)Nc1ccc(O)cn1 | 4500 nM |
| O=C(CC1CCN(c2ccc(Cl)cn2)CC1)Nc1ccc(O)cn1 | 3.9 nM |
